Structures are written as SMILES. Results filed as inconclusive are left out. Calls of active or inactive are those of the source.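 The calls were made as follows: active = falling-signal curve with half-maximal concentration at or below ten times the top tested dose; inconclusive = flat fit at 30 to 70% inhibition, or poor fit; inactive = signal rise, flat within 30%, or potency beyond limit.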 Where only a bound is given, the exact number is not on record here.

This test concerns NIH3T3 R4 HSE-GFP/Tet-RFP reporter, fluorescence, 48 h. Nature of the test: Tet-On RFP internal-standard readout, HSF1 screen, dose response, cell-based, NIH3T3 R4, HSE-GFP and Tet-On RFP, cherry-pick, set 3 (AID 493085).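 Also: cells heat shocked 2 h at 42 °C with doxycycline to induce reporters.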
As to `CCCCn1c(C(C)NC(=O)CC)nc2ccccc21` (stereo not given), the AC50 (commonly the concentration giving half of the maximal activity seen) is > 19.5 µM (inactive).

For the compound `NC(=O)c1cc2ccncc2c2ccccc12`, the half-maximal activity concentration (AC50) is 0.805 µM.

For `C#CC(=O)N(c1cc(OC)ccc1OC)C(C(=O)NC1CCCC1)c1cccs1` (stereo not given), the AC50 was 5.39 µM.

Take `CC(=O)c1cn(CC(=O)Nc2ccccc2C)c2ccccc12`: the AC50 is 2.59 µM.

Regarding `CCOC(=O)c1c(N)sc2c(O)c(Br)ccc12`, the AC50 is > 19.5 µM (inactive).

As for `CCSc1nnc(NC(=O)C(Cc2ccccc2)n2cccc2)s1` (stereo not given), the AC50 was > 19.5 µM (inactive).

For the compound `Cc1cc(C)c(NC(=O)CSc2nncn2-c2cccnc2)c(C)c1`, the AC50 is > 19.5 µM (inactive).

On to `CCN(CC)S(=O)(=O)c1ccc2c(c1)c(=O)c(C(=O)NCc1ccco1)cn2C`, for which the AC50 is > 19.5 µM (inactive).

Turning to `Nc1nc(F)nc2c1ncn2[C@@H]1O[C@H](CO)[C@@H](O)[C@H]1O`, the AC50 was 0.981 µM.

For the compound `Cc1occc1C(=O)Nc1cc(C(F)(F)F)ccc1Cl`, the AC50 was > 19.5 µM (inactive).

As for `Cn1c(C(C#N)C(=O)c2sc3ccccc3c2Cl)nc2ccccc21` (stereo not given), the AC50 was > 19.5 µM (inactive).

Take `Oc1ccc(CN2CCCc3ccccc32)c2cccnc12`: the AC50 is 4.67 µM.

With `CN=C1S/C(=C\c2cc(C)n(-c3ccccc3F)c2C)C(=O)N1C`, the concentration at half-maximal activity (AC50) was 16.5 µM.

With `O=[N+]([O-])c1cnc(Sc2ccncn2)s1`, the AC50 is 13.1 µM.

As for `COc1ccc(N(Cc2cc3cc(OC)ccc3[nH]c2=O)S(=O)(=O)c2ccc(NC(C)=O)cc2)cc1`, the AC50 is 14.3 µM.

Consider `O=C(CNC(=S)N(CCCN1CCOCC1)Cc1cccs1)NCc1ccccc1Cl`, for which the AC50 is > 19.5 µM (inactive).

Regarding `CC(=O)c1ccc(NC(=O)C2CCN(S(=O)(=O)c3cccc4cccnc34)CC2)cc1`, the AC50 was > 19.5 µM (inactive).

For the compound `O=C(O)c1ccc(NC2=C(Cl)C(=O)c3ccccc3C2=O)cc1`, the half-maximal activity concentration (AC50) is 18.6 µM.

Regarding `CCOC(=O)COc1ccccc1/C=C\[N+](=O)[O-]`, the AC50 is 5.63 µM.

With `CCOc1cc(/C=N/NC(=O)c2cccc(S(=O)(=O)N3CCOCC3)c2)ccc1OCC(=O)N(C)C`, the AC50 was > 19.5 µM (inactive).

Turning to `CCS(=O)(=O)c1ncc(Cl)c(C(=O)Nc2ccc(S(=O)(=O)N3CCC(C)CC3)cc2)n1`, the AC50 was 16.2 µM.

In the case of `CCNC(=S)N(C)CCc1cc2c(c(OC)c1C=C1C(=O)N(C)C(=O)N(C)C1=O)OCO2`, the AC50 is > 19.5 µM (inactive).

Regarding `C(=N\NC1=Nc2cccc3cccc1c23)/c1ccccn1`, the concentration at half-maximal activity (AC50) was 0.95 µM.

As to `Cc1nc(NCc2ccco2)c2c(C)c(C)sc2n1`, the AC50 was 0.435 µM.

`Cc1cc([N+](=O)[O-])c2ccccc2[n+]1[O-]`: the AC50 was 15.6 µM.

For the compound `CC12CCC(C/C1=N\N=C1\NC(=O)/C(=C\c3ccc(Cl)cc3)S1)C2(C)C` (stereo not given), the AC50 was 1.82 µM.

As to `COC(=O)c1c(N2C(=O)[C@H]3[C@@H](C2=O)[C@]2(C(=O)Nc4c(C)cccc42)N2CCC[C@@H]32)sc(C)c1C`, the AC50 was > 19.5 µM (inactive).

Regarding `CC1(C)CC(NC(=O)COc2ccccc2Cl)CC(C)(C)N1`, the AC50 is > 19.5 µM (inactive).

Turning to `Cc1ccc(-c2cn(-c3ccccc3)c(=S)[nH]2)cc1C`, the AC50 is > 19.5 µM (inactive).

Regarding `Cc1ccc(OCC(=O)c2cc(C)n(-c3ccccc3)c2C)c([N+](=O)[O-])n1`, the AC50 was 8.65 µM.

Regarding `COc1ccc(OC)c2c1C(=O)C(Cl)=C(Cl)C2=O`, the AC50 is 2.29 µM.

For the compound `CCCCn1c(=O)[nH]c(=O)c2c1nc(Cn1ncc(Cl)c(Cl)c1=O)n2CCC`, the AC50 was 18.2 µM.

Consider `Cc1[nH]c2ccccc2c1/C=C/c1nc2ccccc2c(=O)n1-c1cccc([N+](=O)[O-])c1`, for which the AC50 is > 19.5 µM (inactive).

As for `COc1ccc(N2CCN(C(CNC(=O)C(=O)NCc3ccncc3)c3ccco3)CC2)cc1` (stereo not given), the AC50 is > 19.5 µM (inactive).

With `O=C(NCc1ccncc1)C(=O)Nc1nc(C23CC4CC(CC(C4)C2)C3)cs1`, the AC50 was 12 µM.

For `NNC(=O)c1ccc(N2CCc3ccccc32)c([N+](=O)[O-])c1`, the AC50 is > 19.5 µM (inactive).

As for `c1ccc(OCCSc2nc3ccccc3o2)cc1`, the AC50 is > 19.5 µM (inactive).

`O=C(NCCN1CCCCC1)Nc1ccccc1Cl`: the AC50 was > 19.5 µM (inactive).

`Cc1sc2ncnc(NCCc3ccc(S(N)(=O)=O)cc3)c2c1C`: the AC50 was 0.185 µM.

Turning to `CCOC(=O)Cc1nnc2c(Nc3ccccc3F)nc3nonc3n12`, the AC50 was 2.32 µM.

Regarding `CCOC(=O)c1c(C)[nH]c2c1-c1ccccc1C(=O)C2=O`, the AC50 was 1.07 µM.

For `N#Cc1cccc(C#N)c1Oc1ccc(S(=O)(=O)Nc2ccc(Cl)cc2)cc1`, the AC50 was 18.8 µM.

Consider `CCN(CC)c1ncnc2ccc(Br)cc12`, for which the AC50 was 19.9 µM.

Consider `COc1ccc(CN2CCC(C(=O)Nc3ccc(Oc4cccnc4)cc3)CC2)c(C)c1C`, for which the AC50 was 17.2 µM.

`CC(=O)OCCCNc1cc(Sc2ccc(C)cc2)c2nonc2c1[N+](=O)[O-]`: the AC50 is 18.7 µM.

Consider `CCOC(=O)/C(=C\c1ccc([N+](=O)[O-])cc1)C(=O)c1cc(C(C)=O)c(Nc2ccccc2)s1`, for which the AC50 was 6.97 µM.

For the compound `CN(C)c1ccc(CNc2ccc3c(c2)ncn3C(C)(C)C)cc1`, the AC50 is > 19.5 µM (inactive).

On to `Cc1nc2c(-c3ccccc3)cnn2c(N)c1-c1ccccc1`, for which the AC50 is > 19.5 µM (inactive).

Regarding `COc1cc2c(cc1OC)C(c1ccc(-c3ccc(Cl)c(Cl)c3)o1)=NCC2`, the half-maximal activity concentration (AC50) was 18.8 µM.

Regarding `O=C(CCl)N(c1ccccc1)C1CCCCC1`, the AC50 is 4.93 µM.

As for `CC1(C)C[C@H]2C=C(C=O)[C@]3(C=O)C[C@]3(C)[C@H]2C1`, the AC50 is 17.9 µM.

Turning to `Cc1ccc(-n2ncc(Br)c(Br)c2=O)cc1`, the AC50 is 18.3 µM.

For `CC1CC(C)CN(C(=O)c2ccc(CSc3nc4ccncc4[nH]3)cc2)C1` (stereo not given), the AC50 is 13.3 µM.

Turning to `O=C(CCl)Nc1cn(-c2ccccc2)nc1-c1ccc(F)cc1`, the AC50 is 5.82 µM.

In the case of `CSc1ccc(CN(C)Cc2cc(=O)oc3c(C)c(C)ccc23)cc1`, the AC50 was 17.1 µM.

`Cc1oc2c(c1C(=O)NCc1cccnc1)C(=O)c1ccccc1C2=O`: the AC50 was 0.891 µM.

With `COc1ccc(NC(=O)CSc2nnc3ccc(-c4ccncc4)nn23)cc1OC`, the AC50 was > 19.5 µM (inactive).

Take `Cc1nn(-c2ccccc2)c(Cl)c1C(=O)N1CCN(c2ncnc3c2cnn3-c2ccccc2)CC1`: the AC50 was 6.77 µM.

Turning to `COc1ccccc1NC(=O)c1nc(S(=O)(=O)Cc2ccccc2)ncc1Cl`, the AC50 was 4.02 µM.

Consider `CCOc1cc2c(cc1OCC)C(c1ccc(OC)cc1)N(c1ccccc1)C(=O)C2` (stereo not given), for which the AC50 was > 19.5 µM (inactive).
